US9822115B2, “Nitrogen containing compounds and their use as antibacterial agents” (WOCKHARDT LIMITED, priority 2014, dated 2017)
In brackets after ≈: the same amount, converted by molar mass. Where two headings read alike, the source gives them in different places.

How the values were obtained:
[1] = test system: E. coli NCTC 13353 (CTX-M15, OXA-1); experiment: Antibacterial activity, MIC by agar dilution (CLSI); assay type: cell-based; conditions: Escherichia coli
Description: (§1) The biological activity of representative compounds according to the invention against various bacterial strains was investigated. In a typical study, overnight grown bacterial cultures were diluted appropriately and inoculated on the agar media containing doubling dilutions of the test compounds. Observations for growth or no growth was performed after 16-20 hours of incubation at 35±2° C. in the ambient air. The overall procedure was performed as per Clinical and Laboratory Standards Institute (CLSI) recommendations, (Clinical and Laboratory Standards Institute (CLSI), Performance Standards for Antimicrobial Susceptibility Testing, 20th Informational Supplement, M07-A9, Volume 32, No. 2, 2012). Molten Mueller Hinton Agar (BD, USA) containing serial dilutions of each antibacterial agent were poured on to the plates and allowed to solidify. Appropriate suspensions from the freshly grown cultures were prepared in normal saline so that about 10^4 CFU/spot of the organism was delivered on to the drug containing agar plates using automated multipoint inoculator (Mast, UK). The plates were incubated in Biochemical oxygen demand (BOD) incubator at 37° C. for 18 hours and then examined for growth.
Table 2 details the antibacterial activity of representative compounds according to invention, against various Multi Drug Resistant (MDR) Gram-negative bacterial strains. The strains selected for study included E. coli NCTC 13353 producing CTX-M15 and OXA-1 beta-lactamase enzymes; K. pneumoniae H521 producing KPC, SHV, TEM beta-lactamase enzymes; and K. pneumoniae S48 producing NDM, SHV, TEM beta-lactamase enzymes. The activities are expressed as Minimum Inhibitory Concentrations (MICs) (mcg/ml).

[2] = test system: K. pneumoniae H521 (KPC, SHV, TEM); experiment: as above; assay type: cell-based; conditions: Klebsiella pneumoniae
Description: as §1
(§2) The strains selected for study included E. coli NCTC 13353 producing CTX-M15 and OXA-1 beta-lactamase enzymes; K. pneumoniae H521 producing KPC, SHV, TEM beta-lactamase enzymes; and K. pneumoniae S48 producing NDM, SHV, TEM beta-lactamase enzymes. The activities are expressed as Minimum Inhibitory Concentrations (MICs) (mcg/ml).

[3] = test system: K. pneomoniae S48 (NDM, SHV, TEM); experiment: as above; assay type: cell-based, K. pneumoniae; conditions: Klebsiella pneumoniae
Description: as §1, §2

[4] = target: T1, Class A beta-lactamase, K. pneumoniae ATCC 700603 (SHV 18) (Klebsiella pneumoniae, UniProt P0AD64, E235K/G234A/R39S); experiment: biochemical
T1 construct: preincubated mixture of crude enzyme and the agents; endogenous in cells; host or cells: K. pneumoniae ATCC 700603
T1 sequence (P0AD64 22-286 R39S/G234A/E235K): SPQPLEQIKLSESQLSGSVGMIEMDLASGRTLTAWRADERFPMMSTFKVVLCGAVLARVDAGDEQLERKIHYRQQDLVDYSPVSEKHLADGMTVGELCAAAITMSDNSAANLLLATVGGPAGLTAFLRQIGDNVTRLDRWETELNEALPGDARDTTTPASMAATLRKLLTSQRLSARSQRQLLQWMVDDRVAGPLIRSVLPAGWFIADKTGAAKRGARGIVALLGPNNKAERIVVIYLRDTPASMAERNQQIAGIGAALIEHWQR
Description: (§3) Determination of enzyme inhibition activity: Concentration of the inhibitor required to inhibit 50% of enzymatic activity was measured by adding a chromogenic substrate, Nitrocefin (100 uM, 5 min) to the preincubated mixture of crude enzyme and the agents (37° C., 10 min). Absorbance was measured at 485 nm by UV-spectrophotometer. The IC50 was calculated by plotting absorbance against concentration through Sigmoidal dose response curve using Graph Pad software.
(§4) The enzyme inhibition was expressed as IC50.

[5] = test system: T2, Class C beta-lactamase, E. coli M50 (CMY/DHA); assay type: biochemical; conditions: read-out: Beta-lactamase enzyme inhibition IC50
T2 construct: no borders, tags or purification printed
Description: as §3, §4

[6] = target: T3, Class D beta-lactamase, A. baumannii NCTC 13301 (OXA 23) (Acinetobacter baumannii, UniProt Q9L4P2); experiment: Beta-lactamase enzyme inhibition (nitrocefin, crude enzyme); assay type: biochemical; conditions: Class D A. baumannii NCTC 13301 (OXA 23); read-out: Beta-lactamase enzyme inhibition IC50
T3 construct: preincubated mixture of crude enzyme and the agents; endogenous in cells; host or cells: A. baumannii NCTC 13301
T3 sequence (Q9L4P2 18-273): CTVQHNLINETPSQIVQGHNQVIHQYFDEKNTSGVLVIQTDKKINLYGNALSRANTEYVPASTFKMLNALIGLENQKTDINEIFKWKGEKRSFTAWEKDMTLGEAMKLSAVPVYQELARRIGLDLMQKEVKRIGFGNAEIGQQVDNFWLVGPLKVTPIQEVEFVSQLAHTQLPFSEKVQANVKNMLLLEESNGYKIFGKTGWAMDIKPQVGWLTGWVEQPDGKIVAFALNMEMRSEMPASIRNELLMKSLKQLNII
Description: as §3, §4

[7] = NCTC13353, Table 2, E. Coli NCTC 13353 (CTX-M15, OXA-1), read-out: MIC
[8] = Table 2, K. pneumoniae H521 (KPC, SHV, TEM), read-out: MIC
[9] = Table 2, K. pneomoniae S48 (NDM, SHV, TEM), read-out: MIC

`CC(C)[C@H](N)COc1ccc(CC(=O)NNC(=O)[C@@H]2CC[C@@H]3CN2C(=O)N3OS(=O)(=O)O)cc1` [Example 54, (2S,5R)-sulfuric acid mono-[2-(N′-{2-[4-((S)-2-amino-3-methyl-butoxy)-phenyl]-acetyl}-hydrazinocarbonyl)-7-oxo-1,6-diaza-bicyclo[3.2.1]oct-6-yl]ester] showed an MIC [1, 7] of 1 µg/mL (≈ 2 µM), an MIC [2, 8] of 8 µg/mL (≈ 16 µM) and an MIC [3, 9] of 1 µg/mL (≈ 2 µM). For the same compound, the IC50 [4] was 37 nM, the IC50 [5] was 40 nM and the IC50 [6] was 625 nM.
`NCCOc1ccc(CC(=O)NNC(=O)[C@@H]2CC[C@@H]3CN2C(=O)N3OS(=O)(=O)O)cc1` [Example 30, (2S,5R)-sulfuric acid mono-[2-(N′-{2-[4-(2-amino-ethoxy)-phenyl]-acetyl}-hydrazinocarbonyl)-7-oxo-1,6-diaza-bicyclo[3.2.1]oct-6-yl]ester] was tested, and the MIC [1, 7] was 0.5 µg/mL (≈ 1.09 µM), the MIC [2, 8] was 2 µg/mL (≈ 4.37 µM) and the MIC [3, 9] was 0.5 µg/mL (≈ 1.09 µM). It also gave an IC50 [4] of 7 nM, an IC50 [5] of 36 nM and an IC50 [6] of 451 nM.
With `C[C@@H](N)COc1cccc(CC(=O)NNC(=O)[C@@H]2CC[C@@H]3CN2C(=O)N3OS(=O)(=O)O)c1` [Example 42, (2S,5R)-sulfuric acid mono-[2-(N′-{2-[3-((R)-2-amino-propoxy)-phenyl]-acetyl}-hydrazinocarbonyl)-7-oxo-1,6-diaza-bicyclo[3.2.1]oct-6-yl]ester] the MIC [1, 7] was 1 µg/mL (≈ 2.12 µM), the MIC [2, 8] was 1 µg/mL (≈ 2.12 µM) and the MIC [3, 9] was 0.5 µg/mL (≈ 1.06 µM). It also gave an IC50 [4] of 36 nM, an IC50 [5] of 32 nM and an IC50 [6] of 1230 nM.
`O=C(Cc1ccccc1OC[C@@H]1CCCN1)NNC(=O)[C@@H]1CC[C@@H]2CN1C(=O)N2OS(=O)(=O)O` [Example 56, (2S,5R)-sulfuric acid mono-[2-(N′-{2-[2-((S)-pyrrolidin-2-ylmethoxy)-phenyl]-acetyl}-hydrazinocarbonyl)-7-oxo-1,6-diaza-bicyclo[3.2.1]oct-6-yl]ester] showed an MIC [1, 7] of 8 µg/mL (≈ 16.1 µM), an MIC [2, 8] of 16 µg/mL (≈ 32.2 µM) and an MIC [3, 9] of 16 µg/mL (≈ 32.2 µM). The IC50 [4] was 142 nM, the IC50 [5] was 50 nM and the IC50 [6] was 1760 nM.
In the case of `C[C@H](N)COc1cccc(CC(=O)NNC(=O)[C@@H]2CC[C@@H]3CN2C(=O)N3OS(=O)(=O)O)c1` [Example 41, (2S,5R)-sulfuric acid mono-[2-(N′-{2-[3-((S)-2-amino-propoxy)-phenyl]-acetyl}-hydrazinocarbonyl)-7-oxo-1,6-diaza-bicyclo[3.2.1]oct-6-yl]ester], the MIC [1, 7] is reported as 0.5 µg/mL (≈ 1.06 µM), the MIC [2, 8] is reported as 1 µg/mL (≈ 2.12 µM) and the MIC [3, 9] is reported as 0.5 µg/mL (≈ 1.06 µM). For the same compound, the IC50 [4] was 38 nM, the IC50 [5] was 53 nM and the IC50 [6] was 990 nM.
`O=C(Cc1ccc(OC(=O)[C@@H]2CCCN2)cc1)NNC(=O)[C@@H]1CC[C@@H]2CN1C(=O)N2OS(=O)(=O)O` [Example 25, (S)-pyrrolidine-2-carboxylic acid 4-{2-oxo-2-[N′-((2S,5R)-7-oxo-6-sulphooxy-1,6-diaza-bicyclo[3.2.1]octane-2-carbonyl)-hydrazino]ethyl}-phenyl ester] showed an MIC [1, 7] of 0.5 µg/mL (≈ 0.977 µM), an MIC [2, 8] of 1 µg/mL (≈ 1.95 µM) and an MIC [3, 9] of 1 µg/mL (≈ 1.95 µM). For the same compound, the IC50 [4] was 16 nM, the IC50 [5] was 11 nM and the IC50 [6] was 329 nM.
`C[C@H](N)C(=O)Oc1ccc(CC(=O)NNC(=O)[C@@H]2CC[C@@H]3CN2C(=O)N3OS(=O)(=O)O)cc1` [Example 23, (S)-2-amino-propionic acid 4-{2-oxo-2-[N′-((2S,5R)-7-oxo-6-sulphooxy-1,6-diaza-bicyclo[3.2.1]octane-2-carbonyl)-hydrazino]ethyl}-phenyl ester] gave an MIC [1, 7] of 0.5 µg/mL (≈ 1.03 µM), an MIC [2, 8] of 2 µg/mL (≈ 4.12 µM) and an MIC [3, 9] of 0.5 µg/mL (≈ 1.03 µM). The IC50 [4] was 3 nM, the IC50 [5] was 23 nM and the IC50 [6] was 240 nM.
Compound `O=C(Cc1ccc(OC[C@@H]2CCCN2)cc1)NNC(=O)[C@@H]1CC[C@@H]2CN1C(=O)N2OS(=O)(=O)O` [Example 61, (2S,5R)-sulfuric acid mono-[2-(N′-{2-[4-((S)-pyrrolidin-2-ylmethoxy)-phenyl]-acetyl}-hydrazinocarbonyl)-7-oxo-1,6-diaza-bicyclo[3.2.1]oct-6-yl]ester] has an MIC [1, 7] of 1 µg/mL (≈ 2.01 µM), an MIC [2, 8] of 2 µg/mL (≈ 4.02 µM) and an MIC [3, 9] of 1 µg/mL (≈ 2.01 µM). The IC50 [4] was 71 nM, the IC50 [5] was 29 nM and the IC50 [6] was 690 nM.
With `C[C@@H](N)COc1ccc(CC(=O)NNC(=O)[C@@H]2CC[C@@H]3CN2C(=O)N3OS(=O)(=O)O)cc1` [Example 49, (2S,5R)-sulfuric acid mono-[2-(N′-{2-[4-((R)-2-amino-propoxy)-phenyl]-acetyl}-hydrazinocarbonyl)-7-oxo-1,6-diaza-bicyclo[3.2.1]oct-6-yl]ester] the MIC [1, 7] was 0.5 µg/mL (≈ 1.06 µM), the MIC [2, 8] was 1 µg/mL (≈ 2.12 µM) and the MIC [3, 9] was 0.5 µg/mL (≈ 1.06 µM). It also gave an IC50 [4] of 112 nM, an IC50 [5] of 47 nM and an IC50 [6] of 542 nM.
With `Nc1ccccc1CC(=O)NNC(=O)[C@@H]1CC[C@@H]2CN1C(=O)N2OS(=O)(=O)O` [Example 21, (2S,5R)-sulfuric acid mono-[2-(N′-(2-aminophenyl-acetyl)-hydrazinocarbonyl)-7-oxo-1,6-diaza-bicyclo[3.2.1]oct-6-yl]ester] the MIC ([1]; NCTC13353) was 16 µg/mL (≈ 38.7 µM), the MIC [2] was 16 µg/mL (≈ 38.7 µM) and the MIC [3] was 16 µg/mL (≈ 38.7 µM). The IC50 [4] was 35 nM, the IC50 [5] was 34 nM and the IC50 [6] was 4510 nM.
`O=C(Cc1ccc(O[C@H]2CCNC2)cc1F)NNC(=O)[C@@H]1CC[C@@H]2CN1C(=O)N2OS(=O)(=O)O` [Example 47, (2S,5R)-sulfuric acid mono-[2-(N′-{2-[2-fluoro-4-((S)-pyrrolidin-3-oxy)-phenyl]-acetyl}-hydrazinocarbonyl)-7-oxo-1,6-diaza-bicyclo[3.2.1]oct-6-yl]ester] showed an MIC [1, 7] of 1 µg/mL (≈ 1.99 µM), an MIC [2, 8] of 2 µg/mL (≈ 3.99 µM) and an MIC [3, 9] of 0.5 µg/mL (≈ 0.997 µM). It also gave an IC50 [4] of 15.1 nM, an IC50 [5] of 77 nM and an IC50 [6] of 842 nM.
`NCCCOc1cccc(CC(=O)NNC(=O)[C@@H]2CC[C@@H]3CN2C(=O)N3OS(=O)(=O)O)c1` [Example 35, (2S,5R)-sulfuric acid mono-[2-(N′-{2-[3-(3-amino-propoxy)-phenyl]-acetyl}-hydrazinocarbonyl)-7-oxo-1,6-diaza-bicyclo[3.2.1]oct-6-yl]ester] gave an MIC [1, 7] of 0.5 µg/mL (≈ 1.06 µM), an MIC [2, 8] of 1 µg/mL (≈ 2.12 µM) and an MIC [3, 9] of 0.5 µg/mL (≈ 1.06 µM). The IC50 [4] was 712 nM, the IC50 [5] was 38 nM and the IC50 [6] was 1910 nM.
`C[C@H](N)COc1ccc(CC(=O)NNC(=O)[C@@H]2CC[C@@H]3CN2C(=O)N3OS(=O)(=O)O)c(F)c1` [Example 44, (2S,5R)-sulfuric acid mono-[2-(N′-{2-[2-fluoro-4-((S)-2-amino-propoxy)-phenyl]-acetyl}-hydrazinocarbonyl)-7-oxo-1,6-diaza-bicyclo[3.2.1]oct-6-yl]ester] showed an MIC [1, 7] of 1 µg/mL (≈ 2.04 µM), an MIC [2, 8] of 2 µg/mL (≈ 4.09 µM) and an MIC [3, 9] of 1 µg/mL (≈ 2.04 µM). For the same compound, the IC50 [4] was 58 nM, the IC50 [5] was 31 nM and the IC50 [6] was 561 nM.
Compound `NCCCOc1ccccc1CC(=O)NNC(=O)[C@@H]1CC[C@@H]2CN1C(=O)N2OS(=O)(=O)O` [Example 34, (2S,5R)-sulfuric acid mono-[2-(N′-{2-[2-(3-amino-propoxy)-phenyl]-acetyl}-hydrazinocarbonyl)-7-oxo-1,6-diaza-bicyclo[3.2.1]oct-6-yl]ester] has an MIC [1, 7] of 2 µg/mL (≈ 4.24 µM), an MIC [2, 8] of 2 µg/mL (≈ 4.24 µM) and an MIC [3, 9] of 2 µg/mL (≈ 4.24 µM). It also gave an IC50 [4] of 79 nM, an IC50 [5] of 60 nM and an IC50 [6] of 3810 nM.
In the case of `Nc1ccc(CC(=O)NNC(=O)[C@@H]2CC[C@@H]3CN2C(=O)N3OS(=O)(=O)O)cc1` [Example 11, (2S,5R)-sulfuric acid mono-[2-(N′-(4-aminophenyl-acetyl)-hydrazinocarbonyl)-7-oxo-1,6-diaza-bicyclo[3.2.1]oct-6-yl]ester], the MIC ([1]; NCTC13353) is reported as 0.5 µg/mL (≈ 1.21 µM), the MIC [2] is reported as 1 µg/mL (≈ 2.42 µM) and the MIC [3] is reported as 1 µg/mL (≈ 2.42 µM). For the same compound, the IC50 [4] was 32 nM, the IC50 [5] was 10 nM and the IC50 [6] was 408 nM.
